Values quoted from earlier work as cited in patent publication US20110171165A1 (priority 2008, published 2011).
pKi: −log10 of the molar value.

Biological target: δ receptors (Cavia porcellus, UniProt A0A286XTF2)
Conditions: read-out: affinity for δ receptors; guinea-pig brain membranes

δ receptors, sequence (A0A286XTF2 1-366): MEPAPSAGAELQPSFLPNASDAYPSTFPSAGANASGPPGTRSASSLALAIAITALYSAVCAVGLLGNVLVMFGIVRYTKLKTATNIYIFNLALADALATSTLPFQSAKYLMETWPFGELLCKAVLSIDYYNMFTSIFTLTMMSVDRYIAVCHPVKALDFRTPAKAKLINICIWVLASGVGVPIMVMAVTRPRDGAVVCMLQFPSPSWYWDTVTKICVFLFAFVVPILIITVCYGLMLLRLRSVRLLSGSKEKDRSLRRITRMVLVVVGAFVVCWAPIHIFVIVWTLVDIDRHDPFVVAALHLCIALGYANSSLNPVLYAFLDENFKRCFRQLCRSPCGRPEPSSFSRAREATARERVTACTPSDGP

CSCC[C@H](NC(=O)[C@H](Cc1ccccc1)NC(=O)CNC(=O)CNC(=O)[C@@H](N)Cc1ccc(O)cc1)C(=O)O [OGF, Tyr-Gly-Gly-Phe-Met]
pKi: 9.05
